Values quoted from earlier work in PMC9782211 (Microorganisms, 2022).

Tested on: hERG channels
Conditions: cited from earlier work
From the text: Inhibition of the potassium current flowing through the cardiac hERG ion channel (Kv11.1) has been correlated to life threatening torsades de pointes cardiac arrhythmia. Effects on hERG channel currents have been observed for a number of drugs, including antihistamines, antipsychotics, and many other drugs from nearly all therapeutic areas and chemical classes, and have become a serious safety concern in drug discovery and development. Inhibition of hERG channel currents have also been reported for antibiotics, in particular for macrolides, raising concerns about the cardiac safety of a ...

In the case of BeKm-1, the “block of hERG channels” value is given as “high affinity”.
